Laboratory results published in patent US4005146A, “Resolution of dl-allethrolone” (Roussel-UCLAF, priority 1971, dated 1977).

Legend:
[1] = system: house flies; test: Lethal insecticidal activity on house flies, topical application to dorsal thorax; format: in vivo; conditions: for % Mortality / DL50: 24 hours after topical treatment, 1 μl acetone solution
Description: The lethal insecticidal activity of d-allethrolone chrysanthemate (compound A) was compared with dl-allethrolone chrysanthemate (compound B) on house flies by topically applying 1 μl of an acetone solution thereof to the dorsal thorax of the insect. 50 insects were used for each dose and the number of dead was determined 24 hours after the treatment.

[2] = system: female german cockroaches; test: Knock down effect on female german cockroaches by direct spraying; format: in vivo; conditions: for % KD after 5 min. / % KD after 10 min. / % KD after 15 min. / % KD after 30 min. / % KD after 60 min.: direct spraying 0.5 ml kerosene/acetone; for KD50 times more active than compound B: compound A vs compound B
Description: The knock down effect of the same two compounds was determined on female german cockroaches by direct spraying as 0.5 ml of a solution in equal volumes of kerosene and acetone. 20 insects were used for each test and the knock down effect was determined at 5,10,15,30 and 60 minutes after treatment.

[3] = vs chrysanthemic acid ester of levo allethrolone; Elliott, J. Sci. Food Agr. 1954; cited from earlier work
[4] = Insecticidal activity of d-allethrolone d-trans chrysanthemate vs the dl-allethrolone ester (general statement); format: in vivo

SMILES	% Mortality ([1]; 50 mg/l) [%]	% Mortality ([1]; 100 mg/l) [%]	DL50 [1] [mg/L]	% KD after 5 min. ([2]; 250 mg/l) [%]	% KD after 10 min. ([2]; 250 mg/l) [%]	% KD after 15 min. ([2]; 250 mg/l) [%]	% KD after 30 min. ([2]; 250 mg/l) [%]	% KD after 60 min. ([2]; 250 mg/l) [%]	% KD after 5 min. ([2]; 500 mg/l) [%]	% KD after 10 min. ([2]; 500 mg/l) [%]	% KD after 15 min. ([2]; 500 mg/l) [%]	% KD after 30 min. ([2]; 500 mg/l) [%]	% KD after 60 min. ([2]; 500 mg/l) [%]	% KD after 5 min. ([2]; 1000 mg/l) [%]	% KD after 10 min. ([2]; 1000 mg/l) [%]	% KD after 15 min. ([2]; 1000 mg/l) [%]	% KD after 30 min. ([2]; 1000 mg/l) [%]	% KD after 60 min. ([2]; 1000 mg/l) [%]	other results
C=CCC1=C(C)C(OC(=O)C2C(C=C(C)C)C2(C)C)CC1=O (racemic) [B, dl-allethrolone chrysanthemate, reference compound]	16.2	33.7	224.3	7.5	7.5	12.5	12.5	12.5	30.9	50.0	54.7	47.6	45.2	46.1	64.1	74.3	79.4	89.7	% Mortality ([1]; 200 mg/l): 49.0%; % Mortality ([1]; 300 mg/l): 55.1%
C=CCC1=C(C)[C@@H](OC(=O)C2C(C=C(C)C)C2(C)C)CC1=O (stereo partly drawn) [A, d-allethrolone chrysanthemate]	45.6	65.3	54	45.0	52.5	65.0	62.5	65.0	61.9	71.4	83.3	85.7	88.0	100	100	100	100	100	% Mortality ([1]; 25 mg/l): 49.0%; % Mortality ([1]; 75 mg/l): 76.6%; times more active than compound B (lethal activity) ([1]; compound A vs compound B, Table II): 4.15 times; KD50 times more active than compound B ([2]; 5 minutes): about 4.3 times; KD50 times more active than compound B ([2]; 30 minutes): 2.8 times; times more effective as an insecticide than the ester of levo allethrolone [3]: 4 times
C=CCC1=C(C)[C@@H](OC(=O)[C@@H]2[C@@H](C=C(C)C)C2(C)C)CC1=O [d-allethrolone d-trans chrysanthemate]																			insecticidal activity relative to the corresponding dl-allethrolone ester [4]: much superior insecticidal activity
